Test results from patent US9452986B2, “6-heteroaryloxy- or 6-aryloxy-quinoline-2-carboxamides and method of use” (AbbVie Inc., priority 2014, dated 2016).
Read-outs that look alike come from different tables or passages of the source.

Biological target: recombinant human Nav1.7 (Homo sapiens (Human), UniProt Q15858)
Assay: FRET-based membrane potential assay, recombinant human sodium channel Nav1.7
Type: cell-based
Details: read-out: FRET-Membrane Potential Nav1.7 IC50
How it was run: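 Channel activation used veratridine at its EC80, set by a dilution curve each experiment, together with Leiurus scorpion venom, added 3 min after compound. Membrane-potential ratio signals from FLIPR Tetra in HEPES-buffered HBSS were fitted to a four-parameter Hill equation for percent inhibition and IC50.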

[1] = HEK293 cells stably expressing recombinant human Nav1.7, veratridine + scorpion venom depolarization

Chain of recombinant human Nav1.7 (Q15858 whole entry): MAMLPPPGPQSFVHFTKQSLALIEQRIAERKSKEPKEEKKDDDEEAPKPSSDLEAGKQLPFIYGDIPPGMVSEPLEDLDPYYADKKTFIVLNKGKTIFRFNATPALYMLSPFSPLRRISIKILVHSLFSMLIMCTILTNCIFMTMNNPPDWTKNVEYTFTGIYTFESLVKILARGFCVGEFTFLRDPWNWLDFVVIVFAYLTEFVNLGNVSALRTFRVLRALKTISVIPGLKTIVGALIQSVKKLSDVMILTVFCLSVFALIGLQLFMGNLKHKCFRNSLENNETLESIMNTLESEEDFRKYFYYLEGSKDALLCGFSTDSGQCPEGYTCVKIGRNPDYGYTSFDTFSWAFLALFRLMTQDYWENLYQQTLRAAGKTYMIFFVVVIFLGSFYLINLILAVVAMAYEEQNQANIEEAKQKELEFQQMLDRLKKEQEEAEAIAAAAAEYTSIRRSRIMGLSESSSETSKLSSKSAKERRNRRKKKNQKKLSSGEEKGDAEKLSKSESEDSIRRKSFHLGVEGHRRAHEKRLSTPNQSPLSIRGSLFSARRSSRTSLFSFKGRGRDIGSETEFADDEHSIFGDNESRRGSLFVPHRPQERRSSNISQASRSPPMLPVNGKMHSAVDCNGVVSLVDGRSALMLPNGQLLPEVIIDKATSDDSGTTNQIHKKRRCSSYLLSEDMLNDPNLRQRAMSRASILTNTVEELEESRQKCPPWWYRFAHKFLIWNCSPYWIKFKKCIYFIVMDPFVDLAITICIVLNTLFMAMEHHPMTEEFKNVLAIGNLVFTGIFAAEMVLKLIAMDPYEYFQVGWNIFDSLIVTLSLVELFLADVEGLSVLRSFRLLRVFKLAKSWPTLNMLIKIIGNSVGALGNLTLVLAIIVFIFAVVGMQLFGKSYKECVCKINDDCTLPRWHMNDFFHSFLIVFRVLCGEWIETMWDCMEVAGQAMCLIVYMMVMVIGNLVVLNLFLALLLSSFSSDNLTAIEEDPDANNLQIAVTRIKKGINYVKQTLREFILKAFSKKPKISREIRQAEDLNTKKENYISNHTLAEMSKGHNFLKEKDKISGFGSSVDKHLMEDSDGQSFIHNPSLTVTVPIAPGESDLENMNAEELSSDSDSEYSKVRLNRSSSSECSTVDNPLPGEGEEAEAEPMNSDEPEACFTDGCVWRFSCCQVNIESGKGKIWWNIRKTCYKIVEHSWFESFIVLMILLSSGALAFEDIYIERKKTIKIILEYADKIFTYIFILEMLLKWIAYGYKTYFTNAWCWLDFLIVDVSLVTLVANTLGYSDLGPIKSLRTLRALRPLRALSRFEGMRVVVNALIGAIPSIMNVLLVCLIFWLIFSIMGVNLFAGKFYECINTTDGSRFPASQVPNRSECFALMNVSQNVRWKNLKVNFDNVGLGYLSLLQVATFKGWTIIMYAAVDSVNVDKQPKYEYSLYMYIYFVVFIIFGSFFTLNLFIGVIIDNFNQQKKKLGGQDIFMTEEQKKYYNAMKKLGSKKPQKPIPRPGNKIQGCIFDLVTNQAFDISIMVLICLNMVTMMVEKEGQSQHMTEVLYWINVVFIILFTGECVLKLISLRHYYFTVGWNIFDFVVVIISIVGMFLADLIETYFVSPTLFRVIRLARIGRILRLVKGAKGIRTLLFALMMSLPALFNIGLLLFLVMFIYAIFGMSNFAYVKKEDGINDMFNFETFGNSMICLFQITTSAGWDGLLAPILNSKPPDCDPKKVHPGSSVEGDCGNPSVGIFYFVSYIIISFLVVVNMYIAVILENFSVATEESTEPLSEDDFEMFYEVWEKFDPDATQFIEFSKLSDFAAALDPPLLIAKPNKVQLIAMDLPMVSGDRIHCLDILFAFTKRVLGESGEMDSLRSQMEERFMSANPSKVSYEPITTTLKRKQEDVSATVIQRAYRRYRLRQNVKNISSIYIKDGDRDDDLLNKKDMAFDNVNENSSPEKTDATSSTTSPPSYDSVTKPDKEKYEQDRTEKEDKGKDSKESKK

Molecule | IC50 [1] | IC50
COC(C)(C)CNC(=O)c1ccc2cc(Oc3ccc(C(F)(F)F)cn3)ccc2n1 [Example 541, N-(2-methoxy-2-methylpropyl)-6-{[5-(trifluoromethyl)pyridin-2-yl]oxy}quinoline-2-carboxamide] | 1.19 µM | 
COC1CN(C(=O)c2ccc3cc(Oc4ccc(C(F)(F)F)cn4)ccc3n2)C1 [Example 396, (3-methoxyazetidin-1-yl)(6-{[5-(trifluoromethyl)pyridin-2-yl]oxy}quinolin-2-yl)methanone] | 1.94 µM | 
O=C(c1ccc2cc(Oc3ncc(C(F)(F)F)cn3)ccc2n1)N1CCNCC1 [Example 247, piperazin-1-yl(6-{[5-(trifluoromethyl)pyrimidin-2-yl]oxy}quinolin-2-yl)methanone] |  | 13.3 µM
CC(C)(O)CNC(=O)c1ccc2cc(Oc3ccc(C(F)(F)F)nc3)ccc2n1 [Example 471, N-(2-hydroxy-2-methylpropyl)-6-{[6-(trifluoromethyl)pyridin-3-yl]oxy}quinoline-2-carboxamide] | 2.4 µM | 
CS(=O)(=O)C1CCN(C(=O)c2ccc3cc(Oc4ccc(C(F)(F)F)cn4)ccc3n2)CC1 [Example 254, [4-(methylsulfonyl)piperidin-1-yl](6-{[5-(trifluoromethyl)pyridin-2-yl]oxy}quinolin-2-yl)methanone] | 13.8 µM | 
O=C(NCCC(=O)N1CCOCC1)c1ccc2cc(Oc3ccc(C(F)(F)F)nc3)ccc2n1 [Example 515, N-[3-(morpholin-4-yl)-3-oxopropyl]-6-{[6-(trifluoromethyl)pyridin-3-yl]oxy}quinoline-2-carboxamide] | 4.25 µM | 
O=C(NCC1COCCN1Cc1ccccc1)c1ccc2cc(Oc3ccc(C(F)(F)F)cn3)ccc2n1 (stereo not drawn) [Example 361, N-[(4-benzylmorpholin-3-yl)methyl]-6-{[5-(trifluoromethyl)pyridin-2-yl]oxy}quinoline-2-carboxamide] | 2.88 µM | 
NC1CCN(C(=O)c2ccc3cc(Oc4ccc(C(F)(F)F)cn4)ccc3n2)CC1 [Example 403, (4-aminopiperidin-1-yl)(6-{[5-(trifluoromethyl)pyridin-2-yl]oxy}quinolin-2-yl)methanone] | 9.67 µM | 
O=C(c1ccc2cc(Oc3ccc(C(F)(F)F)cn3)ccc2n1)N1CC2OCOC2C1 (stereo not drawn) [Example 478, tetrahydro-5H-[1,3]dioxolo[4,5-c]pyrrol-5-yl(6-{[5-(trifluoromethyl)pyridin-2-yl]oxy}quinolin-2-yl)methanone] | 5.94 µM | 
O=C(c1ccc2cc(Oc3ccc(C(F)(F)F)cn3)ccc2n1)N1CCC(O)C(F)(F)C1 (stereo not drawn) [Example 190, (3,3-difluoro-4-hydroxypiperidin-1-yl)(6-{[5-(trifluoromethyl)pyridin-2-yl]oxy}quinolin-2-yl)methanone] |  | 12.1 µM
N#Cc1ccc(Oc2ccc3nc(C(=O)NCCc4cccs4)ccc3c2)cc1 [Example 93, 6-(4-cyanophenoxy)-N-[2-(2-thienyl)ethyl]quinoline-2-carboxamide] | 1.55 µM | 
O=C(c1ccc2cc(Oc3ccc(C(F)(F)F)cn3)ccc2n1)N1CCN(CC(F)(F)F)CC1 [Example 181, [4-(2,2,2-trifluoroethyl)piperazin-1-yl](6-{[5-(trifluoromethyl)pyridin-2-yl]oxy}quinolin-2-yl)methanone] | 3.47 µM | 
CS[C@H]1CN(C(=O)c2ccc3cc(Oc4ccc(C(F)(F)F)cn4)ccc3n2)C[C@@H]1O [Example 348, [(3S,4S)-3-hydroxy-4-(methylsulfanyl)pyrrolidin-1-yl](6-{[5-(trifluoromethyl)pyridin-2-yl]oxy}quinolin-2-yl)methanone] | 3.9 µM | 
CC[C@@H]1CN(C(=O)c2ccc3cc(Oc4ccc(C(F)(F)F)nc4)ccc3n2)CCN1 [Example 543, [(3R)-3-ethylpiperazin-1-yl](6-{[6-(trifluoromethyl)pyridin-3-yl]oxy}quinolin-2-yl)methanone] |  | 0.398 µM
CN(C(=O)c1ccc2cc(Oc3ccc(C(F)(F)F)cn3)ccc2n1)C1CS(=O)(=O)CC1O (stereo not drawn) [Example 398, N-(4-hydroxy-1,1-dioxidotetrahydrothiophen-3-yl)-N-methyl-6-{[5-(trifluoromethyl)pyridin-2-yl]oxy}quinoline-2-carboxamide] | 6.11 µM | 
CC1(O)CN(C(=O)CNC(=O)c2ccc3cc(Oc4ccc(C(F)(F)F)cn4)ccc3n2)C1 [Example 567, N-[2-(3-hydroxy-3-methylazetidin-1-yl)-2-oxoethyl]-6-{[5-(trifluoromethyl)pyridin-2-yl]oxy}quinoline-2-carboxamide] |  | 3.28 µM
CC(C)NC(=O)CN(C)C(=O)c1ccc2cc(Oc3ccc(C(F)F)cn3)ccc2n1 [Example 468, 6-{[5-(difluoromethyl)pyridin-2-yl]oxy}-N-[2-(isopropylamino)-2-oxoethyl]-N-methylquinoline-2-carboxamide] | 13.8 µM | 
O=C(c1ccc2cc(Oc3ccc(C(F)F)cn3)ccc2n1)N1CCNC2(CC2)C1 [Example 558, 4,7-diazaspiro[2.5]oct-7-yl(6-{[5-(difluoromethyl)pyridin-2-yl]oxy}quinolin-2-yl)methanone] |  | 4.49 µM

Molecule | IC50 [1] | IC50
O=C(c1ccc2cc(Oc3ccc(C(F)(F)F)cn3)ccc2n1)N1CCC(F)CC1 [Example 318, (4-fluoropiperidin-1-yl)(6-{[5-(trifluoromethyl)pyridin-2-yl]oxy}quinolin-2-yl)methanone] | 7.41 µM | 
CC(C)C(CO)NC(=O)c1ccc2cc(Oc3ccc(C#N)cc3)ccc2n1 (stereo not drawn) [Example 95, 6-(4-cyanophenoxy)-N-(1-hydroxy-3-methylbutan-2-yl)quinoline-2-carboxamide] | 4.87 µM | 
O=C(c1ccc2cc(Oc3ccc(C(F)(F)F)cn3)ccc2n1)N1CC(F)(F)C[C@@H]1CO [Example 496, [(2R)-4,4-difluoro-2-(hydroxymethyl)pyrrolidin-1-yl](6-{[5-(trifluoromethyl)pyridin-2-yl]oxy}quinolin-2-yl)methanone] | 2.91 µM | 
CC(C)(CO)NC(=O)c1ccc2cc(Oc3ccc(C#N)cc3)ccc2n1 [Example 124, 6-(4-cyanophenoxy)-N-(1-hydroxy-2-methylpropan-2-yl)quinoline-2-carboxamide] |  | 2.14 µM
CC(C)(C)N1CCN(C(=O)c2ccc3cc(Oc4ccc(C#N)cc4)ccc3n2)CC1 [Example 140, 4-({2-[(4-tert-butylpiperazin-1-yl)carbonyl]quinolin-6-yl}oxy)benzonitrile] | 0.559 µM | 
CC1[C@@H](O)[C@@H](O)C(C)N1C(=O)c1ccc2cc(Oc3ccc(C(F)(F)F)cn3)ccc2n1 (mixture of isomers) [Example 323, rac-[(3R,4S)-3,4-dihydroxy-2,5-dimethylpyrrolidin-1-yl](6-{[5-(trifluoromethyl)pyridin-2-yl]oxy}quinolin-2-yl)methanone] | > 20 µM | 
O=C(c1ccc2cc(Oc3ccc(C(F)(F)F)cn3)ccc2n1)N1CCCC(F)(F)C1 [Example 312, (3,3-difluoropiperidin-1-yl)(6-{[5-(trifluoromethyl)pyridin-2-yl]oxy}quinolin-2-yl)methanone] | 6.93 µM | 
Cn1cc(S(=O)(=O)N2CCN(C(=O)c3ccc4cc(Oc5ccc(C(F)(F)F)cn5)ccc4n3)CC2)cn1 [Example 387, {4-[(1-methyl-1H-pyrazol-4-yl)sulfonyl]piperazin-1-yl}(6-{[5-(trifluoromethyl)pyridin-2-yl]oxy}quinolin-2-yl)methanone] | 2.48 µM | 
O=C(c1ccc2cc(Oc3ccc(C(F)(F)F)cn3)ccc2n1)N1CCN(c2cccnn2)CC1 [Example 271, [4-(pyridazin-3-yl)piperazin-1-yl](6-{[5-(trifluoromethyl)pyridin-2-yl]oxy}quinolin-2-yl)methanone] |  | 11.2 µM
O=C(NCC(=O)N1C[C@H](O)C[C@H]1CO)c1ccc2cc(Oc3ccc(C(F)(F)F)cn3)ccc2n1 [Example 564, N-{2-[(2S,4R)-4-hydroxy-2-(hydroxymethyl)pyrrolidin-1-yl]-2-oxoethyl}-6-{[5-(trifluoromethyl)pyridin-2-yl]oxy}quinoline-2-carboxamide] | 16.6 µM | 
1,4-diazepan-1-yl(6-{[5-(trifluoromethyl)pyridin-2-yl]oxy}quinolin-2-yl)methanone [Example 219] | 2.56 µM | 
O=C1CN(C(=O)c2ccc3cc(Oc4ccc(C(F)(F)F)cn4)ccc3n2)CCN1 [Example 172, 4-[(6-{[5-(trifluoromethyl)pyridin-2-yl]oxy}quinolin-2-yl)carbonyl]piperazin-2-one] | 10.5 µM | 
COCC1(C)CN(C(=O)c2ccc3cc(Oc4ccc(C(F)(F)F)cn4)ccc3n2)C1 [Example 199, [3-(methoxymethyl)-3-methylazetidin-1-yl](6-{[5-(trifluoromethyl)pyridin-2-yl]oxy}quinolin-2-yl)methanone] |  | 2.55 µM
O=C(c1ccc2cc(Oc3ccc(C(F)(F)F)cn3)ccc2n1)N1CCN(C2CCCCC2)CC1 [Example 291, (4-cyclohexylpiperazin-1-yl)(6-{[5-(trifluoromethyl)pyridin-2-yl]oxy}quinolin-2-yl)methanone] | 13.7 µM | 
O=C(c1ccc2cc(Oc3ccc(C(F)(F)F)cn3)ccc2n1)N1CCN(S(=O)(=O)c2cccnc2)CC1 [Example 183, [4-(pyridin-3-ylsulfonyl)piperazin-1-yl](6-{[5-(trifluoromethyl)pyridin-2-yl]oxy}quinolin-2-yl)methanone] | > 20 µM | 
O=C(NCC(O)C(F)(F)F)c1ccc2cc(Oc3ccc(C(F)(F)F)nc3)ccc2n1 (stereo not drawn) [Example 551, N-(3,3,3-trifluoro-2-hydroxypropyl)-6-{[6-(trifluoromethyl)pyridin-3-yl]oxy}quinoline-2-carboxamide] |  | 2.77 µM
O=C(c1ccc2cc(Oc3ccc(C(F)(F)F)cn3)ccc2n1)N1CCC[C@@H](O)C1 [Example 581, [(3R)-3-hydroxypiperidin-1-yl](6-{[5-(trifluoromethyl)pyridin-2-yl]oxy}quinolin-2-yl)methanone] |  | 12.6 µM
N#Cc1ccc(Oc2ccc3nc(C(=O)NCCN4CCOCC4)ccc3c2)cc1 [Example 86, 6-(4-cyanophenoxy)-N-[2-(morpholin-4-yl)ethyl]quinoline-2-carboxamide] |  | 1.74 µM
